# Measured values reported in the supplement of paper PMC11414989.
# Key:
# Conditions in all cases: exposure window: 6 hpf to 120 hpf, static, assay age: 120 hpf (5 dpf)
# [1] = test system: Danio rerio larvae (Tropical 5D); assay: mean distance moved of exposed larvae, dark phase (µm per frame (1/25 s)); higher = more movement
# Method: (§1)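 Larval photomotor response in Tropical 5D wild-type zebrafish. Larvae were statically exposed to each chemical from 6 hpf to 5 dpf in 96-well plates; morphologically abnormal larvae were excluded. At 120 hpf, larvae were tracked with Ethovision XT (25 frames/s) over the 2nd cycle of 3 min light and 3 min dark. Values are the mean movement metric of exposed larvae per phase; same-plate control means (plate-dependent baseline) are given as conditions.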
# [2] = test system: Danio rerio larvae (Tropical 5D); assay: mean distance moved of exposed larvae, light phase (µm per frame (1/25 s)); higher = more movement
# Method: as §1
# [3] = test system: Danio rerio larvae (Tropical 5D); assay: mean angular velocity of exposed larvae, dark phase (angular velocity (unit not stated)); higher = more movement
# Method: as §1
# [4] = test system: Danio rerio larvae (Tropical 5D); assay: mean angular velocity of exposed larvae, light phase (angular velocity (unit not stated)); higher = more movement
# Method: as §1
structure (smiles),measurement,setting,value
Cc1ccc2c(ccc3ccccc32)c1 [2-Methylphenanthrene],mean distance moved of exposed larvae,[1]; 1 µM,16.4
same,mean distance moved of exposed larvae,[1]; 2.54 µM,12.1
same,mean distance moved of exposed larvae,[1]; 6.45 µM,15
same,mean distance moved of exposed larvae,[1]; 16.4 µM,15.5
same,mean distance moved of exposed larvae,[1]; 35 µM,16.9
same,mean distance moved of exposed larvae,[1]; 74.8 µM,13.3
same,mean distance moved of exposed larvae,[1]; 100 µM,13.2
same,mean distance moved of exposed larvae,[2]; 1 µM,2.38
same,mean distance moved of exposed larvae,[2]; 2.54 µM,1.4
same,mean distance moved of exposed larvae,[2]; 6.45 µM,1.73
same,mean distance moved of exposed larvae,[2]; 16.4 µM,2.82
same,mean distance moved of exposed larvae,[2]; 35 µM,1.74
same,mean distance moved of exposed larvae,[2]; 74.8 µM,2.4
same,mean distance moved of exposed larvae,[2]; 100 µM,1.83
same,mean angular velocity of exposed larvae,[3]; 1 µM,0.536
same,mean angular velocity of exposed larvae,[3]; 2.54 µM,0.424
same,mean angular velocity of exposed larvae,[3]; 6.45 µM,0.539
same,mean angular velocity of exposed larvae,[3]; 16.4 µM,0.592
same,mean angular velocity of exposed larvae,[3]; 35 µM,0.507
same,mean angular velocity of exposed larvae,[3]; 74.8 µM,0.473
same,mean angular velocity of exposed larvae,[3]; 100 µM,0.439
same,mean angular velocity of exposed larvae,[4]; 1 µM,0.0841
same,mean angular velocity of exposed larvae,[4]; 2.54 µM,0.0709
same,mean angular velocity of exposed larvae,[4]; 6.45 µM,0.0511
same,mean angular velocity of exposed larvae,[4]; 16.4 µM,0.126
same,mean angular velocity of exposed larvae,[4]; 35 µM,0.0754
same,mean angular velocity of exposed larvae,[4]; 74.8 µM,0.0848
same,mean angular velocity of exposed larvae,[4]; 100 µM,0.0583
O=C(O)CCC(F)(F)C(F)(F)C(F)(F)C(F)(F)C(F)(F)C(F)(F)C(F)(F)F [3-Perfluoroheptyl propanoic acid],mean distance moved of exposed larvae,[1]; 0.25 µM,12.1
same,mean distance moved of exposed larvae,[2]; 0.25 µM,1.75
same,mean angular velocity of exposed larvae,[3]; 0.25 µM,0.534
same,mean angular velocity of exposed larvae,[4]; 0.25 µM,0.0662
O=C(O)CCC(F)(F)C(F)(F)C(F)(F)C(F)(F)C(F)(F)F [3-Perfluoropentyl propanoic acid],mean distance moved of exposed larvae,[1]; 0.25 µM,14.9
same,mean distance moved of exposed larvae,[2]; 0.25 µM,1.49
same,mean angular velocity of exposed larvae,[3]; 0.25 µM,0.61
same,mean angular velocity of exposed larvae,[4]; 0.25 µM,0.0445
O=P(O)(O)C(F)(F)C(F)(F)C(F)(F)C(F)(F)C(F)(F)C(F)(F)Cl [6-Chloroperfluorohexylphosphonic acid],mean distance moved of exposed larvae,[1]; 0.167 µM,20.6
same,mean distance moved of exposed larvae,[2]; 0.167 µM,6.62
same,mean angular velocity of exposed larvae,[3]; 0.167 µM,0.789
same,mean angular velocity of exposed larvae,[4]; 0.167 µM,0.212
O=P(O)(O)C(F)(F)C(F)(F)C(F)(F)C(F)(F)C(F)(F)C(F)(F)C(F)(F)C(F)(F)Cl [8-Chloroperfluorooctylphosphonic acid],mean distance moved of exposed larvae,[1]; 0.167 µM,24.4
same,mean distance moved of exposed larvae,[2]; 0.167 µM,7.53
same,mean angular velocity of exposed larvae,[3]; 0.167 µM,0.9
same,mean angular velocity of exposed larvae,[4]; 0.167 µM,0.234
C[Si](C)(C)C(F)(F)C(F)(F)C(F)(F)F [(Heptafluoropropyl)trimethylsilane],mean distance moved of exposed larvae,[1]; 0.015 µM,13.3
same,mean distance moved of exposed larvae,[1]; 0.046 µM,19.7
same,mean distance moved of exposed larvae,[1]; 0.14 µM,19.1
same,mean distance moved of exposed larvae,[1]; 0.41 µM,16.9
same,mean distance moved of exposed larvae,[1]; 1.23 µM,22.6
same,mean distance moved of exposed larvae,[1]; 3.7 µM,12.9
same,mean distance moved of exposed larvae,[1]; 11.1 µM,18.6
same,mean distance moved of exposed larvae,[1]; 33.3 µM,15.3
same,mean distance moved of exposed larvae,[1]; 66.5 µM,25.7
same,mean distance moved of exposed larvae,[1]; 100 µM,24.3
same,mean distance moved of exposed larvae,[2]; 0.015 µM,1.23
same,mean distance moved of exposed larvae,[2]; 0.046 µM,1.25
same,mean distance moved of exposed larvae,[2]; 0.14 µM,1.98
same,mean distance moved of exposed larvae,[2]; 0.41 µM,1.51
same,mean distance moved of exposed larvae,[2]; 1.23 µM,1.46
same,mean distance moved of exposed larvae,[2]; 3.7 µM,0.916
same,mean distance moved of exposed larvae,[2]; 11.1 µM,2.09
same,mean distance moved of exposed larvae,[2]; 33.3 µM,1.5
same,mean distance moved of exposed larvae,[2]; 66.5 µM,1.57
same,mean distance moved of exposed larvae,[2]; 100 µM,2.09
same,mean angular velocity of exposed larvae,[3]; 0.015 µM,0.571
same,mean angular velocity of exposed larvae,[3]; 0.046 µM,0.779
same,mean angular velocity of exposed larvae,[3]; 0.14 µM,0.81
same,mean angular velocity of exposed larvae,[3]; 0.41 µM,0.637
same,mean angular velocity of exposed larvae,[3]; 1.23 µM,0.884
same,mean angular velocity of exposed larvae,[3]; 3.7 µM,0.521
same,mean angular velocity of exposed larvae,[3]; 11.1 µM,0.685
same,mean angular velocity of exposed larvae,[3]; 33.3 µM,0.594
same,mean angular velocity of exposed larvae,[3]; 66.5 µM,0.949
same,mean angular velocity of exposed larvae,[3]; 100 µM,1.01
same,mean angular velocity of exposed larvae,[4]; 0.015 µM,0.0325
same,mean angular velocity of exposed larvae,[4]; 0.046 µM,0.0534
same,mean angular velocity of exposed larvae,[4]; 0.14 µM,0.0675
same,mean angular velocity of exposed larvae,[4]; 0.41 µM,0.0607
same,mean angular velocity of exposed larvae,[4]; 1.23 µM,0.048
same,mean angular velocity of exposed larvae,[4]; 3.7 µM,0.0422
same,mean angular velocity of exposed larvae,[4]; 11.1 µM,0.0925
same,mean angular velocity of exposed larvae,[4]; 33.3 µM,0.0521
same,mean angular velocity of exposed larvae,[4]; 66.5 µM,0.0503
same,mean angular velocity of exposed larvae,[4]; 100 µM,0.0731
